Converted amounts (≈) assume the structure as drawn.
Tests used:
[1] = test system: prostaglandin E2 production in 3T3 Swiss Albino fibroblast cells; experiment: Inhibition of prostaglandin E2 production in calcium ionophore stimulated cells; type: cell-based; design: Anti-inflammatory capacity, Average (PGE2 assay): unit: %; details: for IC50: range of concentrations, read-out: IC 50 values, Average (PGE2 assay); for dose response in PGE2 assay: over the concentration range tested
Method: Samples were tested for their ability to inhibit prostaglandin E2 production in cells stimulated by a calcium ionophore, compared to stimulated cells not exposed to any sample. Inhibition was tested over a range of 3 concentrations, although a dose response was not observed for most samples. This is probably because the samples are very efficient at inhibiting PGE2 production and the range of concentrations used was too narrow. The data presented are the maximal inhibition of PGE2 observed for a given sample.
3T3 Swiss Albino fibroblast cell suspension (Phenol-red free DMEM with 10% FBS and 2 mM L-glutamine) was plated out into 96-well tissue culture plates (1×10^5 cells/mL, 100 μL/well). The cells were cultured overnight at 37° C., 5% CO2. […] Cells+samples were incubated (37° C., 3 hours), before the addition of calcium ionophore A23187. Following 20 min incubation, the plate was centrifuged (1000 g, 3 min) and the supernatants were removed. Included on the plate was a positive control (aspirin; 100 μM), and DMSO control, both with and without calcium ionophore A23187.
The supernatants were diluted by serial dilution (1:500) in enzyme immunoassay (EIA) buffer, and assayed for PGE2 using the Prostaglandin E2 EIA Monoclonal Kit (Cayman Chemical; Cat No. 514010), according to manufacturers' instructions.

[2] = ORAC (oxygen radical absorbance capacity) assay; details: for ORAC value: Centipeda fractions, Table 7; for Antioxidant capacity (ORAC): pure compounds, Table 13
Method: The antioxidant capacity of the Centipeda fractions was measured using the ORAC procedure (Oxygen Radical Absorbance Capacity). A water soluble analogue of vitamin E, Trolox, was used as a reference standard, and the ORAC value is expressed as μmol of trolox equivalence (TE) per gram of sample extract.
The ORAC assay employed in this study measured the antioxidant scavenging activity in the test samples, against peroxyl radicals induced by 2,2′-azobis(2-amidinopropane)dihydrochloride (AAPH) at 37° C. Fluorescein was used as the fluorescent probe. The method used is based on that of Huang et al.^1, Huang et al.^2 and Prior et al.^3 ^1 Huang et al., 2002. Journal of Agricultural and Food Chemistry 50(16): 1815-1821.^2 Huang et al., 2002. Journal of Agricultural and Food Chemistry 50(16): 4437-4444.^3 Prior et al., 2003. Journal of Agricultural and Food Chemistry 51(11): 3273-3279.
All samples were assayed using the hydrophilic ORAC procedure in serial dilution×4 with acetone:water:acetic acid; 70:29.5:0.5 (A:W:A,) and in quadruplicate, starting with the concentration relevant to the sample, depending on the approximated antioxidant capacity from an initial screen.
Trolox, a water soluble analogue of vitamin E, was used as a reference standard. A trolox standard curve was established from trolox standards prepared at 100, 50, 25, and 12.5 μM in A:W:A.
Briefly, 10 μL fluorescein (6.0×10^−7 M), 20 μL samples/standards/control/blank (A:W:A) and 170 μL […] (20 mM) were added per well. Immediately after loading, the plate was transferred to the plate reader preset to 37° C., and the fluorescence was measured 35 times at one minute intervals. The fluorescence readings were referenced to solvent blank wells. The final ORAC values were calculated using a regression equation between the Trolox concentration and the net area under the fluorescein decay curve, and where possible were expressed as Trolox equivalents (TE) as micromoles per gram of sample.

## COc1c(O)cc2oc(-c3ccc(O)cc3O)c(OC3OC(CO)C(O)C(O)C3O)c(=O)c2c1O (single isomer, unassigned) [Compound 1, 2′,4′,5,7-tetrahydroxy-6-methoxyflavone-3-O-β-glucopyranoside]
[1]; 5.0 μg/mL
  Anti-inflammatory capacity, Average (PGE2 assay): 52.2
[1]; Fibroblast
  IC50: 1.47 µg/mL (≈ 2.97 µM)
[1]; Fibroblast, sample 0.125 mg/mL, maximal inhibition observed, read-out: % inhibition of PGE2 production ± SEM
  inhibition at 125 µg/mL: 67.8 ± 2.86%
[2]
  ORAC value: 3871.9 μmol TE/g of extract
  Antioxidant capacity (ORAC): 12178 TE/g extract

## O=C(/C=C/c1ccc(O)c(O)c1)OC(/C=C(\O)C(=O)O)C(OC(=O)/C=C/c1ccc(O)c(O)c1)C(O)C(=O)O (single isomer, unassigned) [Compound 2, 4ξ,5ξ-Di-O-caffeoyl-2,6ξ-dihydroxyhept-2-en-1,7-dioic acid]
[1]; 5.0 μg/mL
  Anti-inflammatory capacity, Average (PGE2 assay): 67.38
[1]; Fibroblast
  IC50: 2.48 µg/mL (≈ 4.54 µM)
[1]; Fibroblast, sample 0.0625 mg/mL, maximal inhibition observed, read-out: % inhibition of PGE2 production ± SEM
  inhibition at 62.5 µg/mL: 74.5 ± 8.06%
[2]
  ORAC value: 3415.1 μmol TE/g of extract
  Antioxidant capacity (ORAC): 13781 TE/g extract

## CC(=O)Oc1ccccc1C(=O)O [Aspirin, aspirin, reference compound]
[1]; 100 μM, positive control
  Anti-inflammatory capacity, Average (PGE2 assay): 54.6
[1]; Fibroblast, 0.01 mM, positive control, read-out: % inhibition of PGE2 production ± SEM
  inhibition at 10 µM: 57.4 ± 14.4%

## COC(=O)C(O)C(OC(=O)/C=C/c1ccc(O)c(O)c1)C(/C=C(\O)C(=O)O)OC(=O)/C=C/c1ccc(O)c(O)c1 (stereo not drawn) [Compound 8, 4ξ,5ξ-Di-O-caffeoyl-2,6ξ-dihydroxyhept-2-en-1,7-dioic acid-7-methyl ester]
[1]; 5.0 μg/mL
  Anti-inflammatory capacity, Average (PGE2 assay): 73.50
[1]; Fibroblast
  IC50: 4.73 µg/mL (≈ 8.44 µM)
[2]
  Antioxidant capacity (ORAC): 8122 TE/g extract

## COC(=O)/C(O)=C/C(OC(=O)/C=C/c1ccc(O)c(O)c1)C(OC(=O)/C=C/c1ccc(O)c(O)c1)C(O)C(=O)O (stereo not drawn) [Compound 9, 4ξ,5ξ-Di-O-caffeoyl-2,6ξ-dihydroxyhept-2-en-1,7-dioic acid-1-methyl ester]
[1]; 5.0 μg/mL
  Anti-inflammatory capacity, Average (PGE2 assay): 45.00
[1]
  dose response in PGE2 assay: did not exhibit a standard dose response type curve
[2]
  Antioxidant capacity (ORAC): 6822 TE/g extract

## COC(=O)/C(O)=C/C(OC(=O)/C=C/c1ccc(O)c(O)c1)C(OC(=O)/C=C/c1ccc(O)c(O)c1)C(O)C(=O)OC (stereo not drawn) [Compound 10, 4ξ,5ξ-Di-O-caffeoyl-2,6ξ-dihydroxyhept-2-en-1,7-dioic acid-dimethyl ester]
[1]; 5.0 μg/mL
  Anti-inflammatory capacity, Average (PGE2 assay): 73.95
[1]
  dose response in PGE2 assay: did not exhibit a standard dose response type curve
[2]
  Antioxidant capacity (ORAC): 3957 TE/g extract
